Assay results as given in patent publication US5183906A, “2- and 5-alkyl and phenyl substituted 4-(1-hydroxy, 1-acyloxy or 1-carbamoyloxy)-5-hydroxy-2 (5H)-furanones as anti-inflammatory agents” (Allergan, Inc., priority 1991, dated 1993).
Read-outs that look alike come from different tables or passages of the source.

Columns and labels:
[1] = test system: Calcium^2+ Channel; test: Calcium^2+ Channel Mobilization Inhibition Assay; assay type: cell-based; conditions: cell type not stated
Experimental: Polymorphonuclear leukocytes (PMNa), gastric glands, GH3 cells, A431 cells, spleen cells, human keratinocytes corneal cells, etc. were loaded with the Ca^2+ sensitive fluorescent dye, Fura-2. The appropriate cell type was chosen and the potency and efficacy of the anti-inflammatory furanones on calcium mobilization, calcium channel inhibition was quantitated. The methods used for A431 cells listed below are representative of those used for other cells.
A431 cells were detached using a 5-10 min trypsin-EDTA treatment whereas GH3 cells were treated 2 to 5 min with a 1% pancreatin solution. Cells were immediately washed twice in a 20 mM HEPES buffer (pH 7.4) containing 120 mM NaCl, 6 mM KCl, 1 mM MgSO4, 1 mg/ml glucose and 1 mg/ml pyruvate and 1.4 mM calcium (medium A). Approximately 5×10^6 cells were suspended in medium A and incubated with 4uM fura-2-AM for 15 min at 37° C.
After washing the fura-2 loaded cells, the uptake of dye was checked using fluorescence microscopy and found to be evenly distributed in the cytosol of all cells. Fluorescence was continuously recorded with a Perkin-Elmer LS-5 spectrofluorometer. The excitation wavelength was set at 340 nm and emission wavelength set at 500 nm. The cell suspension was continually stirred, maintained at 37° C. and equilibrated for approximately 5 min before addition of various agents. [Ca^2+ i was calculated using the following formula: [formula]
All fluorescence values were measured relative to a EGTA-quenched signal determined as follows: F was the relative fluorescence measurement of the sample. Fmax was determined by lysing the cells with digitonin (100 ug/ml) in DMSO. After Fmax was determined the pH was adjusted to 8, with NaOH and Ca^2+ chelated with 3 mM EGTA to totally quench the fura-2 signal and obtain Fmin.
When quin-2- was used, cells were incubated with 10 uM quin-2- at 37° C. for 1 hour, washed and then used.

[2] = target: bee venom phospholipase A2 (Apis mellifera, UniProt P00630); test: biochemical; conditions: pH 7.4
Chain of bee venom phospholipase A2 (P00630 34-167 limits assumed): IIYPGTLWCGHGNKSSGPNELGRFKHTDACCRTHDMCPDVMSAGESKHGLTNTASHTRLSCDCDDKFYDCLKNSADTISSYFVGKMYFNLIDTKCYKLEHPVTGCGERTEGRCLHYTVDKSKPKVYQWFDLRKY

[3] = KCl induced, read-out: IC50, Calcium^2+ Channel Mobilization Inhibition Assay, KCl induced
[4] = TRH induced, read-out: IC50, Calcium^2+ Channel Mobilization Inhibition Assay, TRH induced

| SMILES | IC50 [1, 3] [nM] | IC50 [1, 4] [nM] | IC50 [2] [nM] |
| --- | --- | --- | --- |
| CCCCCCCCCCCCC(OC(C)=O)C1=CC(=O)OC1(C)O (stereo not shown) [Compound 1, 4-(1-Acetoxytridecyl)-5-hydroxy-5-methyl-2-furanone] | 7000 | 2500 |  |
| CCCCCCCCCCCCC(OC(C)=O)C1=C(C)C(=O)OC1O (stereo not shown) [Compound 2, 4-(1-Acetoxytridecyl)-3-methyl-5-hydroxy-2(5H)-furanone] |  |  | > 1000 |
| CCCCCCCCCCCCC(OC(=O)Nc1ccccc1)C1=CC(=O)OC1(C)O (stereo not shown) [Compound 4, 5-Methyl-5-hydroxy-4-(1-phenylcarbamoyloxy)tridecyl-2-furanone] | 800 | 500 |  |
| CC1=C(CC/C(C)=C/CCC2=CCC(C3=CC(=O)OC3O)OC2O)C(C)(C)CCC1 (stereo not shown) [manoalide, reference compound] | 800 | 600 |  |
